Results as given in patent publication US10669283B2, “Compound and pharmacologically acceptable salt thereof” (MEIJI SEIKA PHARMA CO., LTD., priority 2016, dated 2020).
Where two headings read alike, the source gives them in different places.

Experiments:
PDE4 = PDE4 inhibition, scintillation proximity assay (SPA); type: biochemical;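 as to PDE4 Inhibitory Activity (concentration for the inhibition rate of 50%): A below 100 nM B 100 to below 1000 nM C 1000 nM or more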
Summary of the method: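 Compound pre-diluted 1:10 in 50 mM Tris-HCl pH 7.4, 8.3 mM MgCl2, 1.7 mM EGTA, 3 mg/mL BSA, then incubated with PDE4 and [2,8-3H]-cAMP for 120 min at room temperature. Product captured on ZnSO4-containing YSi-SPA beads for 15 min; radioactivity counted against no-enzyme blank and DMSO control.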

[1] = Hepatic metabolic stability (rat liver microsome method); type: in vitro ADME; conditions: rat liver microsomes 0.5 mg/mL, test substance 1 μM, NADPH 1 mM, 37° C., 30 minutes
Summary of the method: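 Test compound (1 μM) preincubated with rat liver microsomes (0.5 mg/mL) in 100 mM potassium phosphate pH 7.4 at 37° C; NADPH (1 mM) started reaction, acetonitrile stopped it at 0 and 30 min. LC-MS quantitation; % remaining = 30-min/0-min ×100, graded A ≥75%, B 60–<75%, C 45–<60%, D <45%.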

[2] = scintillation proximity assay, class symbols, read-out: PDE4 Inhibitory Activity
[3] = scintillation proximity assay (SPA), evaluated as classes A, B, C, read-out: PDE4 Inhibitory Activity (concentration for the inhibition rate of 50%)

SMILES | IC50 (PDE4; [2]) | Residual ratio (% remaining for 30-minute reaction) [1] | IC50 (PDE4; [3])
OCCSc1ccc(-c2nccs2)c2oc(N3CC4CC(C3)N4)nc12 [Example 348, 2-((2-(3,6-diazabicyclo[3.1.1]heptan-3-yl)-7-(thiazol-2-yl)benzo [d]oxazol-4-yl)thio) ethan-1-ol] | < 100 nM | B (60% or more and less than 75%) | 
CC(C)(O)C(F)(F)Oc1ccc(-c2ccccn2)c2oc(N3CC4CCC(C3)N4)nc12 [Example 317, 1-((2-(3,8-Diazabicyclo[3.2.1]octan-3-yl)-7-(pyridin-2-yl)benzo[d]oxazol-4-yl)oxy)-1,1-difluoro-2-methylpropan-2-ol] |  | A (a % remaining rate of 75% or more) | < 100 nM
c1csc(-c2ccc(O[C@H]3CCOC3)c3nc(N4CC5CC(C4)N5)oc23)n1 [Example 323, 2-(3,6-Diazabicyclo[3.1.1]heptan-3-yl)-4-(((S)-tetrahydrofuran-3-yl)oxy)-7-(thiazol-2-yl)benzo[d]oxazole] |  | B (60% or more and less than 75%) | < 100 nM
c1cnc(Oc2ccc(-c3nccs3)c3oc(N4CC5CC(C4)N5)nc23)cn1 [Example 339, 2-(3,6-diazabicyclo[3.1.1]heptan-3-yl)-4-(pyrazin-2-yloxy)-7-(thiazol-2-yl)benzo [d]oxazole] | < 100 nM | B (60% or more and less than 75%) | 
CC(C)(O)C(F)(F)Oc1ccc(-c2ccsn2)c2oc(N3CC4CCC(C3)N4)nc12 [Example 331, 1-((2-(3,8-diazabicyclo [3.2.1]octan-3-yl)-7-(isothiazol-3-yl)benzo [d]oxazol-4-yl)oxy)-1,1-difluoro-2-methylpropan-2-ol] | < 100 nM | B (60% or more and less than 75%) | 
CC(O)(CO)C(F)(F)Oc1ccc(-c2nccs2)c2oc(N3CC4CC(C3)N4)nc12 (single isomer, unassigned) [Example 364, 3-((2-(3,6-diazabicyclo [3.1.1]heptan-3-yl)-7-(thiazol-2-yl)benzo[d]oxazol-4-yl)oxy)-3,3-difluoro-2-methylpropane-1,2-diol] | < 100 nM | A (a % remaining rate of 75% or more) | 
CC(C)(O)C(F)(F)Oc1c(Cl)cc(-c2nccs2)c2oc(N3CC4CC(C3)N4)nc12 [Example 400, 1-((2-(3,6-diazabicyclo [3.1.1]heptan-3-yl)-5-chloro-7-(thiazol-2-yl)benzo[d]oxazol-4-yl)oxy)-1,1-difluoro-2-methylpropan-2-ol] | < 100 nM | B (60% or more and less than 75%) | 
Cc1nsc(-c2ccc(OC(F)(F)C(C)(C)O)c3nc(N4CC5CCC(C4)N5)oc23)n1 [Example 333, 1-((2-(3,8-diazabicyclo [3.2.1]octan-3-yl)-7-(3-methyl-1,2,4-thiadiazol-5-yl)benzo[d]oxazol-4-yl)oxy)-1,1-difluoro-2-methylpropan-2-ol] | 100 to 1000 nM | B (60% or more and less than 75%) | 
COCC(F)(F)Oc1ccc(-c2nccs2)c2oc(N3CC4CC(C3)N4)nc12 [Example 392, 2-(3,6-diazabicyclo[3.1.1]heptan-3-yl)-4-(1,1-difluoro-2-methoxyethoxy)-7-(thiazol-2-yl) benzo[d]oxazole] | < 100 nM | B (60% or more and less than 75%) | 
CC(O)(CO)C(F)(F)Oc1ccc(-c2nccs2)c2oc(N3CC4CC(C3)N4)nc12 (racemic) [Example 326, 3-((2-(3,6-Diazabicyclo[3.1.1]heptan-3-yl)-7-(thiazol-2-yl)benzo[d]oxazol-4-yl)oxy)-3,3-difluoro-2-methylpropane-1,2-diol] | < 100 nM | A (a % remaining rate of 75% or more) | 
OCC(F)(F)Oc1ccc(-c2ccccn2)c2oc(N3CC4CC(C3)N4)nc12 [Example 315, 2-((2-(3,6-Diazabicyclo[3.1.1]heptan-3-yl)-7-(pyridin-2-yl)benzo[d]oxazol-4-yl)oxy)-2,2-difluoroethan-1-ol] |  | A (a % remaining rate of 75% or more) | < 100 nM
O=S(=O)(c1ccc(-c2nccs2)c2oc(N3CC4CC(C3)N4)nc12)N1CCOCC1 [Example 391, 2-(3,6-diazabicyclo [3.1.1]heptan-3-yl)-4-(morpholino-sulfonyl)-7-(thiazol-2-yl)benzo [d]oxazole] | < 100 nM | B (60% or more and less than 75%) | 
O=C(NCCO)c1ccc(-c2nccs2)c2oc(N3CC4CC(C3)N4)nc12 [Example 355, 2-(3,6-diazabicyclo [3.1.1]heptan-3-yl)-N-(2-hydroxyethyl)-7-(thiazol-2-yl) benzo[d] oxazole-4-carboxamide] | < 100 nM | A (a % remaining rate of 75% or more) | 
OC(c1cc(-c2nccs2)c2oc(N3CC4CCC(C3)N4)nc2c1)C(F)F (stereo not shown) [Example 104, 1-(2-(3,8-Diazabicyclo[3.2.1]octan-3-yl)-7-(thiazol-2-yl)benzo[d]oxazol-5-yl)-2,2-difluoroethan-1-ol] |  | B (60% or more and less than 75%) | < 100 nM
CC(C)(O)C(F)(F)Oc1c(Br)cc(-c2nccs2)c2oc(N3CC4CC(C3)N4)nc12 [Example 399, 1-((2-(3,6-diazabicyclo [3.1.1]heptan-3-yl)-5-bromo-7-(thiazol-2-yl)benzo[d]oxazol-4-yl)oxy)-1,1-difluoro-2-methylpropan-2-ol] | < 100 nM | B (60% or more and less than 75%) | 
FC(F)(F)Oc1ccc(Oc2ccc(-c3nccs3)c3oc(N4CC5CC(C4)N5)nc23)nc1 [Example 343] | < 100 nM | B (60% or more and less than 75%) | 
c1csc(-c2ccc(OC3COC3)c3nc(N4CC5CC(C4)N5)oc23)n1 [Example 325, 2-(3,6-Diazabicyclo[3.1.1]heptan-3-yl)-4-(oxetan-3-yloxy)-7-(thiazol-2-yl)benzo[d]oxazole] | < 100 nM | A (a % remaining rate of 75% or more) | 
c1csc(-c2ccc(OC3CCOCC3)c3nc(N4CC5CCC(C4)N5)oc23)n1 [Example 254, 2-(3,8-Diazabicyclo[3.2.1]octan-3-yl)-4-((tetrahydro-2H-pyran-4-yl)oxy)-7-(thiazol-2-yl)benzo[d]oxazole] |  | A (a % remaining rate of 75% or more) | < 100 nM
Cc1csc(-c2ccc(OC(F)(F)C(C)(C)O)c3nc(N4CC5CCC(C4)N5)oc23)n1 [Example 318, 1-((2-(3,8-Diazabicyclo[3.2.1]octan-3-yl)-7-(4-methylthiazol-2-yl)benzo[d]oxazol-4-yl)oxy)-1,1-difluoro-2-methylpropan-2-ol] |  | B (60% or more and less than 75%) | < 100 nM
FC(F)(F)c1ccc(Oc2cc(-c3nccs3)c3oc(N4CC5CC(C4)N5)nc3c2)nc1 [Example 413, 2-(3,6-diazabicyclo [3.1.1]heptan-3-yl)-7-(thiazol-2-yl)-5-((5-(trifluoro-methyl)pyridin-2-yl)oxy) benzo[d] oxazole] | < 100 nM | A (a % remaining rate of 75% or more) | 
N#Cc1ccc(-c2nccs2)c2oc(N3CC4CC(C3)N4)nc12 [Example 335, 2-(3,6-diazabicyclo [3.1.1]heptan-3-yl)-7-(thiazol-2-yl)benzo [d]oxazole-4-carbonitrile] | < 100 nM | A (a % remaining rate of 75% or more) | 
CC(C)(O)C(F)(F)Oc1ccc(-c2nccs2)c2oc(N3CC4CC(C3)N4)nc12 [Example 248, 1-((2-(3,6-Diazabicyclo[3.1.1]heptan-3-yl)-7-(thiazol-2-yl)benzo[d]oxazol-4-yl)oxy)-1,1-difluoro-2-methylpropan-2-ol] |  | A (a % remaining rate of 75% or more) | < 100 nM
OCc1cccnc1Oc1ccc(-c2nccs2)c2oc(N3CC4CC(C3)N4)nc12 [Example 376, (2-((2-(3,6-diazabicyclo[3.1.1]heptan-3-yl)-7-(thiazol-2-yl)benzo[d]oxazol-4-yl)oxy)pyridin-3-yl)methanol] | < 100 nM | A (a % remaining rate of 75% or more) | 
OCC(O)C(F)(F)Oc1ccc(-c2nccs2)c2oc(N3CC4CC(C3)N4)nc12 (stereo not shown) [Example 370, 3-((2-(3,6-diazabicyclo[3.1.1]heptan-3-yl)-7-(thiazol-2-yl)benzo[d]oxazol-4-yl)oxy)-3,3-difluoropropane-1,2-diol] | < 100 nM | A (a % remaining rate of 75% or more) | 
CC(C)(O)C(F)(F)Oc1ccc(-c2ncco2)c2oc(N3CC4CCC(C3)N4)nc12 [Example 321, 1-((2-(3,8-Diazabicyclo[3.2.1]octan-3-yl)-7-(oxazol-2-yl)benzo[d]oxazol-4-yl)oxy)-1,1-difluoro-2-methylpropan-2-ol] |  | A (a % remaining rate of 75% or more) | < 100 nM
FC(F)(F)Oc1c(Cl)cc(-c2nccs2)c2oc(N3CC4CC(C3)N4)nc12 [Example 3, 2-(3,6-Diazabicyclo[3.1.1]heptan-3-yl)-5-chloro-7-(thiazol-2-yl)-4-(trifluoromethoxy)benzo[d]oxazole] |  | B (60% or more and less than 75%) | < 100 nM
